Experiments:
[1] = tested on: postnasal drip; assay: Treatment of postnasal drip: nasal spray delivered into the nasal cavity, patient responses evaluated; assay type: in vivo, human; conditions: 34 μg/spray diphenhydramine in combination with an anticholinergic and a glucocorticosteroid (mometasone furoate 1.7 mg/5 mL, ipratropium bromide 1 mg/5 mL, diphenhydramine 1.7 mg/5 mL); two sprays to each nostril daily; evaluated after 4 to 6 weeks
Protocol: A composition including mometasone furoate (1.7 mg/5 mL), ipratropium bromide (1 mg/5 mL), and diphenhydramine (1.7 mg/5 mL) was prepared. A specially configured nasal atomizer having a large aerosol plume and a three inch stem was used to bypass the nasal valve area and deliver medication into the nasal cavity. Two sprays were administered to each nostril daily. Patient responses were evaluated after 4 to 6 weeks.

[2] = Sedation / patient tolerance of the nasal spray in use; assay type: in vivo, human; conditions: 34 micrograms/spray (or 69 μg daily) to each nostril, triple combination nasal spray; 15,000 units dispensed
Protocol: A specially configured nasal atomizer having a large aerosol plume and a three inch stem was used to bypass the nasal valve area and deliver medication into the nasal cavity. Two sprays were administered to each nostril daily. Patient responses were evaluated after 4 to 6 weeks.
34 micrograms/spray (or 69 μg daily) to each nostril is […] less than the lowest dose (12.5 milligrams) of oral diphenhydramine.

CN(C)CCOC(c1ccccc1)c1ccccc1 [Diphenhydramine, diphenhydramine]
arresting postnasal drip [1]: effective
sedation [2]: sedation has not been an issue

Source: US20190269703A1, “MATERIALS AND METHODS FOR TREATING CHRONIC COUGH” (Mayo Foundation for Medical Education and Research, priority 2016, published 2019)
